From PubChem BioAssay (NCI) come the findings set out here.

Some test systems named below: DU-145 prostate; EKVX NSCLC; HCC-2998 colon; HCT-15 colon; HS 578T breast; HT29 colon; KM12 colon; MALME-3M melanoma; MCF7 breast; NCI-H23 lung; NCI-H460 lung; OVCAR-3 ovarian; PC-3 prostate; RXF 393 renal; SF-268 CNS; SF-539 CNS; SNB-75 CNS; SR leukemia; SW-620 colon; UO-31 renal.
What all share (assay): inhibition of tumour cell growth, NCI panel, 48 h

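48-hour exposure; five concentrations; linearly interpolated endpoints. The concentration for full growth arrest is given as TGI.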

As for `O=C1/C(=C/c2ccc(O)cc2)CCc2ccc([N+](=O)[O-])cc21`, the TGI in the test on DU-145 prostate was over 100 µM; in the test with EKVX NSCLC, over 100 µM; in the test with HCC-2998 colon, over 100 µM; in the test with HCT-15 colon, over 100 µM; with HS 578T breast it was over 79.8 µM; in the test on HT29 colon it was over 100 µM. Further, the TGI in the test with KM12 colon, with MALME-3M melanoma, in the test on MCF7 breast, in the test on NCI-H23 lung, in the test with NCI-H460 lung and in the test on OVCAR-3 ovarian was over 100 µM in each case. Further, the TGI with PC-3 prostate is over 100 µM; in the test with RXF 393 renal, over 92.3 µM; with SF-268 CNS it was over 100 µM; with SF-539 CNS, over 100 µM; in the test on SNB-75 CNS it was over 100 µM; in the test with SR leukemia, over 100 µM. Moreover, the TGI in the test with SW-620 colon was over 100 µM; with UO-31 renal, over 81.6 µM.
As for `C=C1[C@H](OCC(C)C)[C@@H](O)[C@@H](OC(=O)c2cccnc2)C(C)(C)/C=C/[C@H](C)[C@H](OC(C)=O)[C@@]2(O)C[C@@](C)(OC(C)=O)[C@H](OC(=O)c3ccccc3)[C@@H]2[C@H]1OC(C)=O`, the TGI was over 5 µM in the test on DU-145 prostate; over 5 µM with EKVX NSCLC; 1.59 µM in the test on HCC-2998 colon; 4.97 µM in the test with HCT-15 colon; over 2.39 µM in the test on HS 578T breast; 1.17 µM with HT29 colon. Moreover, the TGI in the test with KM12 colon is over 2.97 µM; in the test on MALME-3M melanoma, 1.46 µM; with MCF7 breast it was over 5 µM; in the test with NCI-H23 lung it was over 3.13 µM; in the test on NCI-H460 lung, 1.52 µM; in the test on OVCAR-3 ovarian, over 3.67 µM. Besides, the TGI was over 5 µM in the test with PC-3 prostate; over 5 µM in the test with RXF 393 renal; over 3.24 µM in the test with SF-268 CNS; 1.58 µM in the test on SF-539 CNS; over 2.87 µM with SNB-75 CNS; over 3.35 µM with SR leukemia. The TGI was over 5 µM with SW-620 colon and over 1.24 µM with UO-31 renal.
On to `CCC/C(Cl)=N/OC(=O)Nc1cc(C(F)(F)F)ccc1OC`, for which the TGI is 30 µM in the test on DU-145 prostate; 19.9 µM with EKVX NSCLC; 30.6 µM in the test on HCC-2998 colon; 16.6 µM in the test with HCT-15 colon; over 72.2 µM in the test on HS 578T breast; 44.1 µM with HT29 colon. Also, the TGI with KM12 colon came out at 33.5 µM; with MALME-3M melanoma it was 7.34 µM; with MCF7 breast it was 27.7 µM; in the test on NCI-H23 lung, 37.2 µM; in the test with NCI-H460 lung, 36.5 µM; in the test with OVCAR-3 ovarian it was 30.3 µM. Further, the TGI in the test on PC-3 prostate was 29.7 µM; in the test on RXF 393 renal, 18.3 µM; with SF-268 CNS it was 29.8 µM; with SF-539 CNS it was 28.6 µM; in the test with SNB-75 CNS, 28.5 µM; with SR leukemia, 13.5 µM. Moreover, the TGI with SW-620 colon came out at 11.4 µM; with UO-31 renal, 29.9 µM.
For the compound `O=C(O)C1(Cc2ccccc2)Cc2cc3c(cc2C1)CCC3`, the TGI in the test with DU-145 prostate, with EKVX NSCLC, in the test on HCC-2998 colon, with HCT-15 colon, in the test on HS 578T breast and in the test on HT29 colon was over 100 µM throughout. Also, the TGI with KM12 colon, in the test on MALME-3M melanoma, with MCF7 breast, in the test on NCI-H23 lung, in the test on NCI-H460 lung and in the test on OVCAR-3 ovarian was over 100 µM throughout. For the same compound, the TGI in the test on PC-3 prostate, in the test with RXF 393 renal, in the test with SF-268 CNS, in the test with SF-539 CNS, with SNB-75 CNS and in the test with SR leukemia was over 100 µM each time. Further, the TGI in the test with SW-620 colon and with UO-31 renal was over 100 µM in each case.
As for `Cc1cc2nc(C=C(C(F)(F)F)C(F)(F)F)sc2cc1C`, the TGI with DU-145 prostate was found to be 10.2 µM; in the test on EKVX NSCLC it was 7.27 µM; in the test on HCC-2998 colon, 8.36 µM; with HCT-15 colon, 8.91 µM; in the test with HS 578T breast, 9.69 µM; with HT29 colon it was 9.93 µM. Moreover, the TGI in the test on KM12 colon is 4.41 µM; with MALME-3M melanoma it was 4.56 µM; in the test on MCF7 breast, 12.5 µM; with NCI-H23 lung, 3.5 µM; with NCI-H460 lung it was 16 µM; in the test with OVCAR-3 ovarian it was 5.63 µM. Moreover, the TGI was 4.98 µM with PC-3 prostate; 3.68 µM in the test with RXF 393 renal; 11.3 µM in the test on SF-268 CNS; 4.31 µM in the test on SF-539 CNS; 10.3 µM with SNB-75 CNS; 13.2 µM in the test with SR leukemia. In addition, the TGI is 10.7 µM with SW-620 colon and 7.17 µM in the test on UO-31 renal.
In the case of `O=C(NNC1=NCCCN1)c1ccco1`, the TGI in the test with DU-145 prostate, in the test with EKVX NSCLC, in the test on HCC-2998 colon, in the test on HCT-15 colon, with HS 578T breast and in the test on HT29 colon was over 100 µM throughout. Moreover, the TGI with KM12 colon, in the test on MALME-3M melanoma, in the test on MCF7 breast, in the test with NCI-H23 lung, in the test on NCI-H460 lung and in the test on OVCAR-3 ovarian was over 100 µM throughout. Further, the TGI with PC-3 prostate, with RXF 393 renal, in the test on SF-268 CNS, in the test on SF-539 CNS, with SNB-75 CNS and in the test with SR leukemia was over 100 µM each time. The TGI in the test with SW-620 colon and in the test with UO-31 renal was over 100 µM in each case.
With `CC(=O)OCC1OC(c2c(OC(C)=O)cc(C)c3c(=O)cc(/C(C(C)=O)=C(\C)O)oc23)C(OC(C)=O)C(OC(C)=O)C1OC(C)=O` (stereo not given), the TGI with DU-145 prostate, in the test on EKVX NSCLC, in the test on HCC-2998 colon, with HCT-15 colon, with HS 578T breast and in the test on HT29 colon was over 100 µM in each case. The TGI with KM12 colon, with MALME-3M melanoma, in the test on MCF7 breast, in the test with NCI-H23 lung, in the test on NCI-H460 lung and in the test on OVCAR-3 ovarian was over 100 µM in each case. For the same compound, the TGI with PC-3 prostate, with RXF 393 renal, in the test with SF-268 CNS, in the test on SF-539 CNS, in the test with SNB-75 CNS and in the test with SR leukemia was over 100 µM in each case. Further, the TGI in the test on SW-620 colon and with UO-31 renal was over 100 µM throughout.
`COC(=O)c1cc(=O)n(-c2ccc3nn(C)nc3c2)cc1C(=O)OC`: the TGI in the test on DU-145 prostate, in the test with EKVX NSCLC, in the test on HCC-2998 colon, in the test on HCT-15 colon, in the test on HS 578T breast and in the test on HT29 colon was over 100 µM in each case. In addition, the TGI in the test on KM12 colon, in the test with MALME-3M melanoma, in the test with MCF7 breast, in the test on NCI-H23 lung, in the test on NCI-H460 lung and in the test with OVCAR-3 ovarian was over 100 µM each time. The TGI in the test on PC-3 prostate, in the test on RXF 393 renal, in the test with SF-268 CNS, in the test with SF-539 CNS, in the test on SNB-75 CNS and with SR leukemia was over 100 µM each time. Besides, the TGI in the test on SW-620 colon and in the test on UO-31 renal was over 100 µM each time.
For the compound `C=CCC1(Sc2ccccn2)Sc2ccc3ccccc3c2-c2c(ccc3ccccc23)S1`, the TGI in the test on DU-145 prostate, in the test with EKVX NSCLC, with HCC-2998 colon, in the test with HCT-15 colon, in the test with HS 578T breast and in the test with HT29 colon was over 100 µM in each case. Further, the TGI in the test on KM12 colon, in the test with MALME-3M melanoma, with MCF7 breast, in the test with NCI-H23 lung, in the test on NCI-H460 lung and in the test with OVCAR-3 ovarian was over 100 µM in each case. Further, the TGI in the test with PC-3 prostate, with RXF 393 renal, in the test with SF-268 CNS, in the test with SF-539 CNS, with SNB-75 CNS and with SR leukemia was over 100 µM in each case. Further, the TGI with SW-620 colon and in the test on UO-31 renal was over 100 µM each time.
Regarding `Cc1c2c(nc3ccccc13)C(=O)c1cccnc1C2=O`, the TGI is over 100 µM in the test on DU-145 prostate; 88 µM with EKVX NSCLC; over 100 µM with HCC-2998 colon; over 100 µM in the test on HCT-15 colon; over 100 µM in the test with HS 578T breast; 54.2 µM in the test with HT29 colon. Besides, the TGI in the test on KM12 colon was over 100 µM; with MALME-3M melanoma, 3.56 µM; with MCF7 breast, 30.1 µM; in the test on NCI-H23 lung, 73.1 µM; in the test on NCI-H460 lung, 13.1 µM; in the test with OVCAR-3 ovarian, 43.9 µM. The TGI was 73.1 µM in the test with PC-3 prostate; over 100 µM with RXF 393 renal; over 100 µM in the test with SF-268 CNS; 54.2 µM in the test on SF-539 CNS; 91.7 µM in the test on SNB-75 CNS; 65.6 µM in the test with SR leukemia. The TGI in the test with SW-620 colon and in the test with UO-31 renal was over 100 µM throughout.
`N#CC(C#N)=C/C=C/c1c(Cl)cccc1Cl`: the TGI with DU-145 prostate is 3.2 µM; with EKVX NSCLC it was over 10 µM; in the test on HCC-2998 colon, 3.34 µM; in the test on HCT-15 colon, 4.01 µM; in the test on HS 578T breast it was 5.55 µM; in the test on HT29 colon, 3.25 µM. For the same compound, the TGI was 3.02 µM in the test on KM12 colon; 3.15 µM in the test with MALME-3M melanoma; 7.04 µM in the test on MCF7 breast; 2.87 µM in the test on NCI-H23 lung; 4.08 µM with NCI-H460 lung; 5.67 µM in the test on OVCAR-3 ovarian. Also, the TGI in the test on PC-3 prostate is 3.68 µM; in the test with RXF 393 renal, 2.97 µM; in the test with SF-268 CNS it was 4.07 µM; in the test with SF-539 CNS, 2.96 µM; with SNB-75 CNS, over 10 µM; with SR leukemia, over 10 µM. The TGI with SW-620 colon was found to be 4.21 µM; in the test on UO-31 renal, 3.39 µM.
